# Values of other authors in patent US20080096864A1, “Treatment Of Gastrointestinal Stromal Tumors With Imatinib And Midostaurin” (priority 2003, published 2008).
# Test system: advanced GIST
# Conditions: GIST patients on imatinib, one study
smiles,measurement,value
Cc1ccc(NC(=O)c2ccc(CN3CCN(C)CC3)cc2)cc1Nc1nccc(-c2cccnc2)n1 [imatinib],"primary resistance to imatinib, share of patients",13.7 % of patients
